Read-outs that look alike come from different tables or passages of the source. Positions of bridges follow the written chain, without caps; N, C: chain ends. Residues, ends and D or L forms follow the SMILES beside them. No end group written: not given here. *: point of attachment. Biotin = O=C1N[C@H]2[C@H](CS[C@H]2CCCCC(=O)*)N1
Assays:
[1] = molecular target: human IGF-1 receptor (HIGF-1R) (Homo sapiens, UniProt P08069); assay: 125I-IGF-1 competition binding assay on solubilised purified receptor
[2] = molecular target: T1, human insulin receptor (HIR) (Homo sapiens, UniProt P06213); assay: 125I-insulin competition binding assay on solubilised purified receptor
T1 construct: made in house

[3] = system: adipocytes; assay: 3H-glucose uptake into adipocytes (fat cell assay, FFC); assay type: cell-based, Mouse; parameters: key to FFC: 0 is no effect; + is agonist; - is antagonist

T1 sequence (P06213 28-758 limits assumed): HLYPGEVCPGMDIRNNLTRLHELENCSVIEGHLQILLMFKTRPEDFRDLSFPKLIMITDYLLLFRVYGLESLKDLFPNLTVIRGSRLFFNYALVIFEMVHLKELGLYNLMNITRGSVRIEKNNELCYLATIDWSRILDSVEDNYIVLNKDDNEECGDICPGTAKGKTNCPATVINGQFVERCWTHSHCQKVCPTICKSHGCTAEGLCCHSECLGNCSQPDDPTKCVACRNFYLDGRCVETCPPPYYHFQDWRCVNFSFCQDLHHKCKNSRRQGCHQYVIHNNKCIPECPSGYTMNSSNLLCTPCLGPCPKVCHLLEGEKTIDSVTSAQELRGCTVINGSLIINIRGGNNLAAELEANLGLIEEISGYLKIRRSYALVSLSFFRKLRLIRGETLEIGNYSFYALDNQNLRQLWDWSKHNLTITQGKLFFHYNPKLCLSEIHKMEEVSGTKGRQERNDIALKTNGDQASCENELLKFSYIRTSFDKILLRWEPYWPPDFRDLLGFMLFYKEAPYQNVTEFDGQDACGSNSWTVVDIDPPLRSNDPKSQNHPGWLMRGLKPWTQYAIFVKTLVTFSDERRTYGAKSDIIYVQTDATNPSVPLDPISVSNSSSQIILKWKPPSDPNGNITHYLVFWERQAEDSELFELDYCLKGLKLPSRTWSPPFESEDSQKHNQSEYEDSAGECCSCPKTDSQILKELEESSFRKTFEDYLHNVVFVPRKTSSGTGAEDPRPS
T1 sequence (P06213 763-1382 limits assumed): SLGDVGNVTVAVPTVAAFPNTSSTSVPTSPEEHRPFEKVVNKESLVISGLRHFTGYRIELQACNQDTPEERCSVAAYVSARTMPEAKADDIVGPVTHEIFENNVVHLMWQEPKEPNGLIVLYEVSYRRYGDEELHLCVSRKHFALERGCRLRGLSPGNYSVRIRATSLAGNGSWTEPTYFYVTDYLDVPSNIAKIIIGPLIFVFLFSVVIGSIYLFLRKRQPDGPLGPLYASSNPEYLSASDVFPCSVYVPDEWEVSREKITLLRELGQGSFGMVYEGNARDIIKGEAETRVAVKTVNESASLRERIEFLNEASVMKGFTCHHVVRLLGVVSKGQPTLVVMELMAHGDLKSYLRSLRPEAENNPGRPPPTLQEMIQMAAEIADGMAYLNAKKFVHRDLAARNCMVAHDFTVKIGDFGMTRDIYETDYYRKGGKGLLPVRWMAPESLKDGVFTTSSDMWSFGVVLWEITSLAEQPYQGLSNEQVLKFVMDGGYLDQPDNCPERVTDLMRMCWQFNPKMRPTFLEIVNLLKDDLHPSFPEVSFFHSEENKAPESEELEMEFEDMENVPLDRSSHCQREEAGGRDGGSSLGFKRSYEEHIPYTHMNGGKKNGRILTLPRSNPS
Sequence of human IGF-1 receptor (HIGF-1R) (P08069 31-736 limits assumed): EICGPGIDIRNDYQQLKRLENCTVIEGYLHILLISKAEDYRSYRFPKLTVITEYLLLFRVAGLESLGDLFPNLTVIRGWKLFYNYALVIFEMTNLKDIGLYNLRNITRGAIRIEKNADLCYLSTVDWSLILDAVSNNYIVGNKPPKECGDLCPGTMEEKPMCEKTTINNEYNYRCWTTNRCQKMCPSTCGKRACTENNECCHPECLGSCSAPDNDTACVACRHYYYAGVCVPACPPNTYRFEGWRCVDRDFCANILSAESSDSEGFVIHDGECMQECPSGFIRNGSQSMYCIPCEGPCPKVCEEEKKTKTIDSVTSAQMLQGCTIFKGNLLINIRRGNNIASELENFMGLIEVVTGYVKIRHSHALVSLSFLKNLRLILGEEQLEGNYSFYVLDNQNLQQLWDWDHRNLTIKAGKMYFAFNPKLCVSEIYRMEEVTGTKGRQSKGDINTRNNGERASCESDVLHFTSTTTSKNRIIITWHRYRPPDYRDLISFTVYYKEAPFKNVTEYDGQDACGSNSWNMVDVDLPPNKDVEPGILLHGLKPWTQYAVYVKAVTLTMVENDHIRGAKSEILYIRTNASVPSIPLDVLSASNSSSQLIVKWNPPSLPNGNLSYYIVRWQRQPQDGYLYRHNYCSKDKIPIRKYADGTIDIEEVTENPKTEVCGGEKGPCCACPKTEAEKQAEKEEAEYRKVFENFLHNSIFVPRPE
Sequence of human IGF-1 receptor (HIGF-1R) (P08069 741-1367 limits assumed): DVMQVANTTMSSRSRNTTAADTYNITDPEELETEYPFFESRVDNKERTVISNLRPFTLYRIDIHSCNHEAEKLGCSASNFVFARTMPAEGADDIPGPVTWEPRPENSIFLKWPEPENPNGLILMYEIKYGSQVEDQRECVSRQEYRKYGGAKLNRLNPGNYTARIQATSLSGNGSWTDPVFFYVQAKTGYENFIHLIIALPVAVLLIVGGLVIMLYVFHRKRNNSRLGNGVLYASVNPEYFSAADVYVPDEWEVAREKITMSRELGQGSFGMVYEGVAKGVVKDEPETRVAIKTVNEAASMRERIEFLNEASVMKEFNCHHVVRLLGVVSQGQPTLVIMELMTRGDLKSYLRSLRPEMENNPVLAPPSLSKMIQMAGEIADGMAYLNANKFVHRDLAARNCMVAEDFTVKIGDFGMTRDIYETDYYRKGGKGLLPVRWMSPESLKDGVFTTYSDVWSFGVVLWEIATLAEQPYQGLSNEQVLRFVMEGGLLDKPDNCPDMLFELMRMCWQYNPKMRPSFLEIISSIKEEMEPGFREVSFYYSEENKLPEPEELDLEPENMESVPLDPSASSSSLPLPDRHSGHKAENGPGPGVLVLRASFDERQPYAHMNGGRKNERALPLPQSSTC

Kd ([2]; read-out: HIR affinity)	Compound	FFC [3]	also measured
0.58 µM	CC(C)[C@H](NC(=O)[C@H](Cc1ccccc1)NC(=O)[C@H](Cc1c[nH]c2ccccc12)NC(=O)[C@H](CC(=O)O)NC(=O)[C@H](Cc1ccc(O)cc1)NC(=O)[C@H](Cc1ccccc1)NC(=O)[C@H](CC(N)=O)NC(=O)[C@H](CCC(=O)O)NC(=O)[C@H](Cc1c[nH]cn1)NC(=O)[C@@H](N)Cc1ccccc1)C(=O)N[C@@H](CCCNC(=N)N)C(=O)N[C@@H](CCC(N)=O)C(=O)N[C@H](C(=O)N[C@@H](CO)C(=O)N[C@@H](CCCCN)C(=O)N[C@@H](CCCCN)C(=O)N[C@@H](CNC(=O)CON=CCCCCC=NOCC(=O)NC[C@H](NC(=O)[C@H](CCCCN)NC(=O)[C@H](CCCCN)NC(=O)[C@H](CO)NC(=O)[C@@H](NC(=O)[C@H](CCC(N)=O)NC(=O)[C@H](CCCNC(=N)N)NC(=O)[C@@H](NC(=O)[C@H](Cc1ccccc1)NC(=O)[C@H](Cc1c[nH]c2ccccc12)NC(=O)[C@H](CC(=O)O)NC(=O)[C@H](Cc1ccc(O)cc1)NC(=O)[C@H](Cc1ccccc1)NC(=O)[C@H](CC(N)=O)NC(=O)[C@H](CCC(=O)O)NC(=O)[C@H](Cc1c[nH]cn1)NC(=O)[C@@H](N)Cc1ccccc1)C(C)C)C(C)C)C(N)=O)C(N)=O)C(C)C [Clone S169]		
2.9 µM	CC(C)[C@H](NC(=O)[C@H](Cc1ccccc1)NC(=O)[C@H](Cc1c[nH]c2ccccc12)NC(=O)[C@H](CC(=O)O)NC(=O)[C@H](Cc1ccc(O)cc1)NC(=O)[C@H](Cc1ccccc1)NC(=O)[C@H](CC(N)=O)NC(=O)[C@H](CCC(=O)O)NC(=O)[C@H](Cc1c[nH]cn1)NC(=O)[C@H](Cc1ccccc1)NC(=O)CNC(=O)[C@@H](N)CS)C(=O)N[C@@H](CCCNC(=N)N)C(=O)N[C@@H](CCC(N)=O)C(=O)N[C@H](C(=O)N[C@@H](CO)C(=O)N[C@@H](CCCCN)C(=O)N[C@@H](CCCCN)C(N)=O)C(C)C [Clone S171]		
> 20 µM	AFYDWF-NH2 [Clone S182]		
> 20 µM	AFYDWFA-NH2 [Clone S181]		
> 20 µM	AFYDWFAK-NH2 [Clone S180]		
> 20 µM	AFYEWFAKK-NH2 [Clone S214]		
> 20 µM	AFYGWFAKK-NH2 [Clone S215]		
> 20 µM	AFYKWFAKK-NH2 [Clone S216]		
0.59 µM	AHENFYDWFVRQVSKK-NH2 [Clone S113]		
> 20 µM	DPFYQGLWEWLRESGEE-NH2 [Clone S289]		
0.61 µM	FAENFYDWFVRQVSKK-NH2 [Clone S112]		
> 20 µM	FHENFYDAFVRQVSKK [Clone S222]	0	
0.75 µM	FHENFYDWFVAQVSKK-NH2 [Clone S108]		
1 µM	FHENFYDWFVRAVSKK-NH2 [Clone S107]		
0.42 µM	FHENFYDWFVRQASKK-NH2 [Clone S106]		
0.31 µM	FHENFYDWFVRQVAKK-NH2 [Clone S105]		
> 20 µM	FYDWF-NH2 [Clone S165]		
> 20 µM	GFREGQRWYWFVAQVT-NH2 [Clone S278]		
> 20 µM	HLSVGEELSWWVALLGQWAR-NH2 [Clone S282]		
2.3 µM	LDRQFYRYFQDLLVGFM-NH2 [Clone S260]		
5.9 µM	QAPSNFYDWFVREWDEE-NH2 [Clone S287]		
4.3 µM	QSFYDYIEELLGGEWKK-NH2 [Clone S288]		
14 µM	RWPNFYGYFESLLTHFS-NH2 [Clone S257]		
0.11 µM	TGHRLGLDEQFYWWFRDALSG-NH2 [Clone S265]		
> 20 µM	WGRSFYRYFETLLAQGI-NH2 [Clone S261]		

Further lines, the compound ahead of its results:

Compound	Kd ([2]; read-out: HIR affinity)	FFC [3]	also measured
CC[C@H](C)[C@H](NC(=O)[C@@H](N)CCCCN)C(=O)NCC(=O)NCC(=O)N[C@@H](CCC(N)=O)C(=O)NCC(=O)N[C@@H](CCC(N)=O)C(=O)N[C@@H](Cc1c[nH]cn1)C(=O)N[C@@H](CCC(N)=O)C(=O)N[C@@H](CC(=O)O)C(=O)NCC(=O)N[C@@H](CC(N)=O)C(=O)N[C@@H](Cc1ccccc1)C(=O)N[C@@H](Cc1ccc(O)cc1)C(=O)N[C@@H](CC(=O)O)C(=O)N[C@@H](Cc1c[nH]c2ccccc12)C(=O)N[C@@H](Cc1ccccc1)C(=O)N[C@H](C(=O)N[C@@H](CCC(=O)O)C(=O)N[C@@H](C)C(=O)N[C@@H](CC(C)C)C(=O)N[C@@H](C)C(=O)N[C@@H](CCCCN)C(=O)N[C@@H](CCCCNC(=O)CCCC[C@@H]1SC[C@@H]2NC(=O)N[C@@H]21)C(N)=O)C(C)C [Clone D101] (H-KIGGQGQHQDGNFYDWFVEALAKK(Biotin)-NH2)			Kd [1]: 13 µM
CC(C)C[C@H](NC(=O)[C@H](C)NC(=O)[C@H](CO)NC(=O)[C@H](CCC(=O)O)NC(=O)[C@H](Cc1ccccc1)NC(=O)[C@H](Cc1c[nH]c2ccccc12)NC(=O)[C@H](CCC(=O)O)NC(=O)[C@H](Cc1ccc(O)cc1)NC(=O)[C@H](Cc1ccccc1)NC(=O)[C@@H](NC(=O)CNC(=O)CNC(=O)CNC(=O)[C@H](CCCNC(=N)N)NC(=O)[C@@H](N)CCCCN)[C@@H](C)O)C(=O)N[C@@H](CCCNC(=N)N)C(=O)N[C@@H](CCCCN)C(=O)N[C@@H](Cc1c[nH]cn1)C(=O)NCC(=O)N[C@@H](C)C(=O)NCC(=O)N[C@@H](CCCCN)C(=O)N[C@@H](CCCCNC(=O)CCCC[C@@H]1SC[C@@H]2NC(=O)N[C@@H]21)C(N)=O [Clone D110] (H-KRGGGTFYEWFESALRKHGAGKK(Biotin)-NH2)			Kd ([2]; read-out: Kd (µM) HIR): 0.84 µM
CC(C)[C@H](NC(=O)[C@H](Cc1ccccc1)NC(=O)[C@H](Cc1c[nH]c2ccccc12)NC(=O)[C@H](CC(=O)O)NC(=O)[C@H](Cc1ccc(O)cc1)NC(=O)[C@H](Cc1ccccc1)NC(=O)[C@H](CC(N)=O)NC(=O)[C@H](CCC(=O)O)NC(=O)[C@H](Cc1c[nH]cn1)NC(=O)[C@@H](N)Cc1ccccc1)C(=O)N[C@@H](CCCNC(=N)N)C(=O)N[C@@H](CCC(N)=O)C(=O)N[C@H](C(=O)N[C@@H](CO)C(=O)N[C@@H](CCCCN)C(=O)N[C@@H](CCCCN)C(=O)O)C(C)C [Clone D117A]			Kd [1]: 5.1 µM
CC[C@H](C)[C@H](NC(=O)[C@H](CCC(=O)O)NC(=O)[C@@H](N)CCCCN)C(=O)N[C@@H](CCC(=O)O)C(=O)N[C@@H](C)C(=O)N[C@@H](CCC(=O)O)C(=O)N[C@@H](Cc1c[nH]c2ccccc12)C(=O)NCC(=O)N[C@@H](CCCNC(=N)N)C(=O)N[C@H](C(=O)N[C@@H](CCCNC(=N)N)C(=O)N[C@H]1CSSC[C@@H](C(=O)N[C@H](C(=O)NCC(=O)NCC(=O)N[C@@H](CCCCN)C(=O)N[C@@H](CCCCNC(=O)CCCC[C@@H]2SC[C@@H]3NC(=O)N[C@@H]32)C(=O)O)C(C)C)NC(=O)[C@H](CCCNC(=N)N)NC(=O)CNC(=O)[C@H](Cc2ccc(O)cc2)NC(=O)[C@H](C(C)C)NC(=O)[C@H](CC(C)C)NC1=O)C(C)C [Clone D122A] (H-KEIEAEWGRVRCLVYGRCVGGKK(Biotin)-OH; disulfide 12-18 (inferred); N-terminus assumed)			Ratio ([1]; Kd HIGF1R / Kd HIR): >20
CC(C)[C@H](NC(=O)[C@H](Cc1ccccc1)NC(=O)[C@H](Cc1c[nH]c2ccccc12)NC(=O)[C@H](CC(=O)O)NC(=O)[C@H](Cc1ccc(O)cc1)NC(=O)[C@H](Cc1ccccc1)NC(=O)[C@H](CC(N)=O)NC(=O)[C@H](CCC(=O)O)NC(=O)[C@H](Cc1c[nH]cn1)NC(=O)[C@@H](N)Cc1ccccc1)C(=O)N[C@@H](CCCNC(=N)N)C(=O)N[C@@H](CCC(N)=O)C(=O)N[C@H](C(=O)N[C@@H](CO)C(=O)N[C@@H](CCCCN)C(=O)N[C@@H](CCCCN)C(=O)N[C@@H](CNC(=O)CON=CCCCCCCC=NOCC(=O)NC[C@H](NC(=O)[C@H](CCCCN)NC(=O)[C@H](CCCCN)NC(=O)[C@H](CO)NC(=O)[C@@H](NC(=O)[C@H](CCC(N)=O)NC(=O)[C@H](CCCNC(=N)N)NC(=O)[C@@H](NC(=O)[C@H](Cc1ccccc1)NC(=O)[C@H](Cc1c[nH]c2ccccc12)NC(=O)[C@H](CC(=O)O)NC(=O)[C@H](Cc1ccc(O)cc1)NC(=O)[C@H](Cc1ccccc1)NC(=O)[C@H](CC(N)=O)NC(=O)[C@H](CCC(=O)O)NC(=O)[C@H](Cc1c[nH]cn1)NC(=O)[C@@H](N)Cc1ccccc1)C(C)C)C(C)C)C(N)=O)C(N)=O)C(C)C [Clone S172]	4.8 µM		
CC(C)C[C@@H]1NC(=O)[C@H](CCC(=O)O)NC(=O)[C@@H](NC(=O)[C@H](CC(C)C)NC(=O)[C@@H](NC(=O)[C@H](CCCNC(=N)N)NC(=O)[C@H](CC(C)C)NC(=O)[C@@H](N)CC(=O)O)C(C)C)CSSC[C@@H](C(=O)N[C@@H](CO)C(=O)N[C@@H](CCC(=O)O)C(N)=O)NC(=O)[C@H](Cc2ccc(O)cc2)NC(=O)CNC(=O)[C@H](CC(C)C)NC(=O)[C@H](C(C)C)NC(=O)[C@H](Cc2ccc(O)cc2)NC(=O)[C@H](C)NC(=O)CNC(=O)CNC(=O)[C@H](Cc2ccccc2)NC1=O [Clone S281] (HELM PEPTIDE1{D.L.R.V.L.C.E.L.F.G.G.A.Y.V.L.G.Y.C.S.E.[am]}$PEPTIDE1,PEPTIDE1,6:R3-18:R3$$$V2.0; N-terminus assumed; bridges inferred)		0	
AAAAFYDWFAAAAAKK-NH2 [Clone S168]	3.8 µM		
ALEEEWAWVQVRSIRSGLPL-NH2 [Clone S284]	> 20 µM		
APVSTEELRWGALLFGQWAG-NH2 [Clone S283]	> 20 µM		
Ac-FYDWF-NH2 [Clone S184]	> 20 µM	0	
EFHENFYDWFVRQVSEE [Clone S115]		+	
FHENAYDWFVRQVSKK [Clone S219]		0	
FHENFADWFVRQVSKK [Clone S220]		0	
FHENFTDWAVRQVSKK [Clone S223]		0	
FHENFYDWFVRQVSK [Clone S158]		+	
FQSLLEELVWGAPLFRYGTG [Clone S224]		0	
FYDWFKK-NH2 [Clone S166]	> 20 µM		
GRVDWLQRNANFYDWFVA [Clone S250]		0	
GRVDWLQRNANFYDWFVAE [Clone S249]		0	
HDPFYSMMKSLLK [Clone S120]		0	
HETFYSMIRSLAK [Clone S117]		0	
HPPLSELKLFLIKK [Clone S124]		0	
HPSTNQMLMKLFK [Clone S123]		0	
HPTSKEIYAKLLK [Clone S122]		0	
IQGWEPFYGWFDDWAQMFEE-NH2 [Clone S264]		0	
NSFYEALRMLSSK [Clone S121]		0	
SLNFYDALQLLAKK [Clone S119]		0	
SSNFYQALMLLS [Clone S129]		0	
